Test results as given in PubChem BioAssay (NCI).
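Each compound was tested at five concentrations against cells in 96-well plates for 48 hours. GI50 = concentration required for 50% inhibition of growth. TGI denotes the concentration required for complete inhibition of growth.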

Key:
Assay in all cases: NCI anticancer screen, dose series, 48 h
RXF 393 renal = system: RXF 393 renal
T-47D breast = system: T-47D breast
NCI-H522 lung = system: NCI-H522 lung
DU-145 prostate = system: DU-145 prostate
MDA-MB-435 = system: MDA-MB-435
LOX IMVI melanoma = system: LOX IMVI melanoma
SF-539 CNS = system: SF-539 CNS
SR leukemia = system: SR leukemia
MDA-MB-231 breast = system: MDA-MB-231 breast
PC-3 prostate = system: PC-3 prostate

SMILES | TGI (RXF 393 renal) | TGI (T-47D breast) | TGI (NCI-H522 lung) | TGI (DU-145 prostate) | TGI (MDA-MB-435) | TGI (LOX IMVI melanoma) | TGI (SF-539 CNS) | TGI (SR leukemia) | TGI (MDA-MB-231 breast) | TGI (PC-3 prostate) | GI50 (RXF 393 renal) | GI50 (SR leukemia)
Nc1nc(SCC(=O)c2ccccc2)nc2nc3c(c(-c4ccccc4)c12)CCCC3 | 70.8 µM | > 100 µM | > 100 µM | > 100 µM | > 100 µM | 61.7 µM | > 100 µM | > 100 µM | > 100 µM | – | – | –
CCOP(=O)(OCC)OC1CC(n2cnc3c(N(CC)CC)ncnc32)OC1CO[Si](C)(C)C(C)(C)C (stereo not given) | 32.3 µM | 27.8 µM | 27.6 µM | 28.8 µM | 31.7 µM | 33.4 µM | 33.8 µM | > 100 µM | – | 28.5 µM | – | –
O=C1C2=Cc3ccccc3CCN2c2ccc([N+](=O)[O-])cc21 | > 100 µM | – | > 100 µM | > 100 µM | > 100 µM | > 100 µM | > 100 µM | > 100 µM | > 100 µM | > 100 µM | – | –
CCC/C(Cl)=N/OC(=O)Nc1cccc(F)c1 | 20.5 µM | 6.34 µM | 1.05 µM | 31.6 µM | 24.8 µM | 5.42 µM | – | – | 27.7 µM | 30.7 µM | – | –
N=C1SCCS1 | – | – | > 100 µM | – | – | > 100 µM | > 100 µM | – | – | – | – | –
Cc1[nH]c2ncn(N)c(=N)c2c1Cc1ccccc1 | – | > 100 µM | > 100 µM | – | > 100 µM | > 100 µM | > 100 µM | > 100 µM | > 100 µM | > 100 µM | – | –
CCCNc1c(Cl)cc(Cl)c2[nH]c3ccccc3c(=O)c12 | – | > 100 µM | > 100 µM | – | > 100 µM | > 100 µM | > 100 µM | > 100 µM | > 100 µM | > 100 µM | – | –
c1ccc2c(-c3ccnc(-c4c[nH]c5ccccc45)n3)c[nH]c2c1 | – | 26.9 µM | – | 44.5 µM | > 100 µM | 10.1 µM | > 100 µM | 19.4 µM | – | 10.7 µM | – | –
O=c1[nH]nc(Cc2ccc(Cl)cc2)n1Nc1ccccc1 | – | > 100 µM | – | 27.8 µM | > 100 µM | > 100 µM | > 100 µM | – | > 100 µM | > 100 µM | – | –
c1ccc(NC2(c3nnnn3C3CCCCC3)CCNCC2)cc1 | – | 52.1 µM | – | > 100 µM | 38 µM | 30.7 µM | 30 µM | 36.1 µM | > 100 µM | – | – | –
CNC1=C(C)C(=O)C2=C(C1=O)C(COC(N)=O)C1(OC)C3NC3CN21 (stereo not given) | – | 18.1 µM | 2.22 µM | – | 5.67 µM | 1.41 µM | 1.92 µM | > 100 µM | – | 41.8 µM | – | –
CN(N=O)C(N)=NC(=O)c1ccccc1 | > 100 µM | > 100 µM | > 100 µM | – | > 100 µM | > 100 µM | > 100 µM | > 100 µM | > 100 µM | > 100 µM | – | –
Cc1oc2nc(N(C)C)n3c(C)nnc3c2c1C | > 100 µM | > 100 µM | > 100 µM | > 100 µM | > 100 µM | > 100 µM | > 100 µM | > 100 µM | > 100 µM | – | – | –
COc1cccc(/C=N/[N-]C(N)=O)c1[O-].[OH3+].[Zn+2] | > 100 µM | – | > 100 µM | – | – | > 100 µM | > 100 µM | > 100 µM | – | – | – | –
O=C(O)C1CCCCN1CCc1c[nH]c2ccccc12 (stereo not given) | > 100 µM | > 100 µM | > 100 µM | > 100 µM | > 100 µM | > 100 µM | > 100 µM | – | > 100 µM | > 100 µM | – | –
Cc1ccc(CCCC(=O)O)cc1C | > 100 µM | – | > 100 µM | > 100 µM | > 100 µM | > 100 µM | – | > 100 µM | > 100 µM | > 100 µM | – | –
O=C(O)c1ccccc1/C=C1\Cc2ccc3c(c2C1=O)CCCC3 | 76.3 µM | 79.3 µM | 65.9 µM | > 100 µM | > 100 µM | > 100 µM | 81.6 µM | 61 µM | 62.3 µM | – | – | –
CC[n+]1c(/C=C/c2ccc(N(CCCl)CCCl)cc2)ccc2cc(Br)ccc21 | – | – | 4.66 µM | – | – | 2.87 µM | 4.29 µM | – | – | – | 588 µM | 132 µM
CC1=NN(c2ccccc2Cl)C2(C1)SCC(=O)N2c1nc2ccccc2s1 (stereo not given) | > 100 µM | > 100 µM | > 100 µM | > 100 µM | > 100 µM | > 100 µM | > 100 µM | – | > 100 µM | > 100 µM | – | –
